For 30 molecules, IC50 results are on record in patent publication US20230130766A1 (SALK INSTITUTE FOR BIOLOGICAL STUDIES, priority 2020, published 2023).

A value given as a limit tells only on which side of the number the result lay.

This assay deals with T1, ULK1 (Homo sapiens, UniProt O75385).
T1 sequence (O75385 1-1050): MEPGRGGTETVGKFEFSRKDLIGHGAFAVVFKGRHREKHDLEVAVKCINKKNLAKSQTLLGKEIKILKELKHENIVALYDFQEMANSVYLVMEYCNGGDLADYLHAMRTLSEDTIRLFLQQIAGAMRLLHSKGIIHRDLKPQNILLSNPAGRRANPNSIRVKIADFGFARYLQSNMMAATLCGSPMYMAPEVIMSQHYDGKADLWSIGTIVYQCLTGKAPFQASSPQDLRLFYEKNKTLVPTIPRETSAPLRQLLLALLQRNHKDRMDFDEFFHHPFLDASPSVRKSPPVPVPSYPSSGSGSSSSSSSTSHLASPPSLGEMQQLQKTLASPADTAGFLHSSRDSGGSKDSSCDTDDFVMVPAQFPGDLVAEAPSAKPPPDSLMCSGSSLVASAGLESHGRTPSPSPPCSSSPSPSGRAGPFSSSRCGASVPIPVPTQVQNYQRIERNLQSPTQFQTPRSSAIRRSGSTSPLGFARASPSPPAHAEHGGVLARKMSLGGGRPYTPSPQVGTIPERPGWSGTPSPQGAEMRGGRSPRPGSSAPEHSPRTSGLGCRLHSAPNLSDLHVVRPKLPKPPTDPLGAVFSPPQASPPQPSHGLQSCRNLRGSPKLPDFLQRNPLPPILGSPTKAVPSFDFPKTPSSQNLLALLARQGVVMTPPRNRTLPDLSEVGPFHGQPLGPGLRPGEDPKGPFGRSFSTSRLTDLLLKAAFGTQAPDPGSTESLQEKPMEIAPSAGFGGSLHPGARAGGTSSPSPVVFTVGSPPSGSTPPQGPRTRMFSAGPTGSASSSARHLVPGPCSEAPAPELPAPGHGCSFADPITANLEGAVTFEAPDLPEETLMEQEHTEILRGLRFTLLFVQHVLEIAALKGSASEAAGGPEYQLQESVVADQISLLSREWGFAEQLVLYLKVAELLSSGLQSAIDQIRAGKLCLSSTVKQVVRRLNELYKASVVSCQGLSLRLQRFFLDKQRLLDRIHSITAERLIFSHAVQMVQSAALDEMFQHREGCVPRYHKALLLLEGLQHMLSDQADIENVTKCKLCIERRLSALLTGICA
In words: ULK1 inhibition assay. In kind it is biochemical. The following applies: * = tested as a mixture of regioisomers.

For the molecule `COc1cc(Nc2ncc(Br)c(Oc3ccccc3N)n2)cc(OC)c1OC` [Compound 254b], the IC50 (commonly the concentration that inhibits the measured activity by half) is less than 0.2 µM.

Take `O=C1CCc2cc(Nc3nc(Nc4ccccc4N4CCOCC4)ncc3C(F)(F)F)ccc2N1` [Compound 118b]: the half-inhibitory concentration (IC50) was more than 2 µM. In the case of `O=C(C1CC1)N(C(=O)C1CC1)c1ccc(Nc2ncc(C(F)(F)F)c(NC3CC3)n2)cc1` [Compound 311], the concentration for half-maximal inhibition (IC50) is less than 0.2 µM.

In the case of `O=C1CCc2cc(Nc3ncc(C(F)(F)F)c(Nc4cc(C5CCC5)[nH]n4)n3)ccc2N1` [Compound 271], the half-inhibitory concentration (IC50) was less than 0.2 µM. With `Cc1cnc(Nc2ccc3c(c2)CCC(=O)N3)nc1NCc1cccc(S(C)(=O)=O)c1` [Compound 67] the figure was more than 2 µM. On to `FC(F)(F)c1cnc(Nc2cnc3[nH]ccc3c2)nc1Nc1ccc2c(c1)OCO2` [Compound 177], for which the IC50 was less than 0.2 µM. For `O=C1CCc2cc(Nc3nc(NC4CC4)c4ccccc4n3)ccc2N1` [Compound 263], the IC50 is more than 2 µM. With `FC(F)(F)c1cnc(Nc2ccc3c(c2)CCC3)nc1Nc1ccc2c(c1)OCO2` [140*], the IC50 is less than 0.2 µM. As to `CC1(Nc2nc(Nc3ccc4c(c3)CCC(=O)N4)ncc2C(F)(F)F)COC1` [Compound 220a], the IC50 was more than 2 µM. As to `O=c1[nH]c2ccc(Nc3ncc(Br)c(NC4CC4)n3)cc2[nH]1` [Compound 236], the IC50 is less than 0.2 µM.

With `O=C1CCc2cc(Nc3ncc(C(F)(F)F)c(NC4CN(c5nc(Nc6ccc7c(c6)CCC(=O)N7)ncc5C(F)(F)F)C4)n3)ccc2N1` [Compound 198b], the half-maximal inhibitory concentration (IC50) is more than 2 µM. `FC(F)(F)c1cnc(NC2CCC2)nc1Nc1cnc2[nH]ccc2c1` [Compound 161b]: the IC50 is less than 0.2 µM. `O=C1CCCc2cc(Nc3ncc(C(F)(F)F)c(NC4CC4)n3)ccc21` [Compound 301]: the half-inhibitory concentration (IC50) is less than 0.2 µM. With `COc1ccc(Nc2nc(Nc3ccc(N4CCOCC4)cc3OC)ncc2C(F)(F)F)cn1` [Compound 40] the figure was more than 2 µM; with `CC(=O)Nc1ccc(Nc2nc(Nc3ccc4c(c3)CCC(=O)N4)ncc2C(F)(F)F)cc1` [Compound 132], less than 0.2 µM. With `CNC(=O)c1ccccc1Nc1nc(Nc2cc(OC)ccc2C)ncc1Br` [Compound 17], the IC50 is less than 0.2 µM. As to `Nc1nc(Nc2ccc3c(c2)CCC(=O)N3)ncc1C(F)(F)F` [Compound 209], the concentration for half-maximal inhibition (IC50) was in the range of 0.2 to 2 µM. Regarding `COc1ccc(C)c(Nc2ncc(Br)c(Nc3ccc(OC)nc3)n2)c1` [Compound 35], the IC50 is more than 2 µM.

Consider `FC(F)(F)c1cnc(Nc2cnc3[nH]ccc3c2)nc1NC1COC1` [Compound 194], for which the IC50 is less than 0.2 µM.

Consider `FC(F)(F)c1cnc(N2CCCC2)nc1Nc1ccc2c(c1)OCO2` [Compound 164a], for which the IC50 is more than 2 µM. As to `COc1cc(N2CCOCC2)ccc1Nc1ncc(C(F)(F)F)c(Nc2ccc3c(c2)CCC(=O)N3)n1` [Compound 123b], the IC50 is less than 0.2 µM. In the case of `Clc1cnc(Nc2ccccc2)nc1Nc1ccccc1` [Compound 114], the 50% inhibitory concentration (IC50) is more than 2 µM.

For the molecule `CNC(=O)c1ccccc1Oc1nc(Nc2cc(Br)ccc2C)ncc1C(F)(F)F` [Compound 100], the concentration for half-maximal inhibition (IC50) was more than 2 µM. For `COc1ccc(C)c(Nc2ncc(Cl)c(Nc3cccc(CC#N)c3)n2)c1` [Compound 54], the IC50 is more than 2 µM. Take `O=C1CCc2cc(Nc3ncc(C(F)(F)F)c(OCCNCCO)n3)ccc2N1` [Compound 212b]: the 50% inhibitory concentration (IC50) fell in the range of 0.2 to 2 µM.

Turning to `COc1ccc(Nc2ncc(C(F)(F)F)c(Nc3ccc4c(c3)OCO4)n2)cc1` [144*], the IC50 is less than 0.2 µM.

With `COc1ccc(C)c(Nc2ncc(C(F)(F)F)c(NCc3cccc(S(C)(=O)=O)c3)n2)c1` [Compound 50], the concentration for half-maximal inhibition (IC50) was more than 2 µM.

On to `COc1cc(Nc2ncc(Br)c(Oc3cccc(O)c3[N+](=O)[O-])n2)cc(OC)c1OC` [Compound 354], for which the IC50 was more than 2 µM. In the case of `c1cc(NC2CC2)nc(Nc2ccc3c(c2)OCCO3)n1` [Compound 224], the IC50 is more than 2 µM. For `C[C@@H]1COCCN1c1nc(Nc2ccc3c(c2)CCC(=O)N3)ncc1C(F)(F)F` [Compound 247], the half-maximal inhibitory concentration (IC50) is less than 0.2 µM.
